Data published in patent US8518924B2, “Agent for inhibiting visceral fat accumulation” (Morinaga Milk Industry Co., Ltd., priority 2005, dated 2013).

Test system: ZDF (Zucker Diabetic Fatty) rats
Experiment: Inhibitory effect on visceral fat accumulation (mesenteric fat weight) in high-fat-diet-fed ZDF rats
Assay type: in vivo, rat
Settings: for Effect of inhibiting visceral fat accumulation (in words): Tukey-Kramer's test vs negative sample; for Mesenteric fat weight as percentage of that of the group administered with the negative sample: oral once a day for 44 days, 45th day; for Mesenteric fat weight: male ZDF rats on high fat diet, oral 1 ml per 400 g body weight once a day for 44 days, measured at 45th day
Procedure: In Example 1, an inhibitory effect of a compound having a lophenol skeleton on visceral fat accumulation was investigated by using ZDF (Zucker Diabetic Fatty) rats that are model animals for obese diabetes.
Compound 3 (4-methylcholest-7-en-3-ol), Compound 4 (4-methylergost-7-en-3-ol), and Compound 5 (4-methylstigmast-7-en-3-ol) which were produced in Preparation Example 1 were used as Test Samples 1, 2, and 3, respectively. Each of the test samples was dissolved in DMSO, and a concentration of each of the compounds in each of the test samples was adjusted with distilled water to be 10 μg/ml, thereby preparing Test Samples 1-1, 2-1, and 3-1. Test Samples 1-2, 2-2, and 3-2 each having the concentration of a compound of 1 μg/ml were prepared.
At 45th day from initiation of the administration, mesenteric fat weights were measured as the visceral fat.

CC(C)CCCC(C)C1CCC2C3=CCC4C(C)C(O)CCC4(C)C3CCC21C (stereo not drawn) [Compound 3, 4-methylcholest-7-en-3-ol]
Effect of inhibiting visceral fat accumulation (in words) (1 μg/ml): tendency to reduce the visceral fat, but no significant effect was observed | Mesenteric fat weight as percentage of that of the group administered with the negative sample (10 μg/ml solution): 65.0% | Effect of inhibiting visceral fat accumulation (in words) (10 μg/ml): significant effects of inhibiting visceral fat accumulation | Mesenteric fat weight (1 μg/ml solution): 5.63 ± 1.25 g | Mesenteric fat weight (10 μg/ml solution, listed as Test Sample 1-1): 4.48 ± 1.34 g

CC(C)C(C)CCC(C)C1CCC2C3=CCC4C(C)C(O)CCC4(C)C3CCC21C (stereo not drawn) [Compound 4, 4-methylergost-7-en-3-ol]
Effect of inhibiting visceral fat accumulation (in words) (1 μg/ml): tendency to reduce the visceral fat, but no significant effect was observed | Mesenteric fat weight as percentage of that of the group administered with the negative sample (10 μg/ml solution): 54.9% | Effect of inhibiting visceral fat accumulation (in words) (10 μg/ml): significant effects of inhibiting visceral fat accumulation | Mesenteric fat weight (1 μg/ml solution): 5.74 ± 1.57 g | Mesenteric fat weight (10 μg/ml solution, listed as Test Sample 2-1): 3.78 ± 0.26 g

CCC(CCC(C)C1CCC2C3=CCC4C(C)C(O)CCC4(C)C3CCC21C)C(C)C (stereo not drawn) [Compound 5, 4-methylstigmast-7-en-3-ol]
Effect of inhibiting visceral fat accumulation (in words) (1 μg/ml): tendency to reduce the visceral fat, but no significant effect was observed | Mesenteric fat weight as percentage of that of the group administered with the negative sample (10 μg/ml solution): 48.7% | Effect of inhibiting visceral fat accumulation (in words) (10 μg/ml): significant effects of inhibiting visceral fat accumulation | Mesenteric fat weight (1 μg/ml solution): 6.10 ± 1.67 g | Mesenteric fat weight (10 μg/ml solution, listed as Test Sample 3-1): 3.36 ± 1.67 g
